We go through eight compounds from patent publication US10633383B2, “Compounds for the treatment, alleviation or prevention of disorders associated with Tau aggregates” (AC Immune SA, priority 2018, dated 2020).

The pEC50 is the EC50 on a negative log10 scale, so that one unit is a factor of ten. By inhibition is commonly meant how much of the control response was suppressed.

pEC50: −log10 of the molar value. A value given as a limit tells only on which side of the number the result lay.

The target of experiment [1] is T1, Tau K18 fragment (amino acids 244 to 372 of human Tau441) aggregates (Homo sapiens, UniProt P10636).
T1 construct: encompassing amino acids 244 to 372 of the longest isoform (2N4R) of human Tau441; host or cells: bacteria
T1 sequence (P10636 561-689): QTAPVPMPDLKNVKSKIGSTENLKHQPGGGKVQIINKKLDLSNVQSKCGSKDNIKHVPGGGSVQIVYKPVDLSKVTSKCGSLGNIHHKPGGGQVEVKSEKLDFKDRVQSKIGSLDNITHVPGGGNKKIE
Kind of experiment: Tau K18 disaggregation assay by ThT. The conditions noted are these: 2 μM K18 aggregates, 30 minutes at RT, ThT fluorescence. Type of experiment: biochemical. How it is done: Tau K18 Disaggregation Assay by ThT
(§1) Compounds were dissolved in anhydrous dimethyl sulfoxide (DMSO, Sigma-Aldrich) to reach a concentration of 10 mM. K18 aggregates and serial dilutions of compounds were mixed together in PBS (volume 50 μL) to a final concentration of 2 μM of K18 aggregates and from 160 to 0.04 μM of compounds. The mixture was incubated for 30 minutes at room temperature (RT), then 40 μL of this mixture were transferred into a black 384-well plate assay (Perkin-Elmer) and mixed with 10 μL of 100 μM ThT in 250 mM glycine (both from Sigma-Aldrich) in PBS. Fluorescence (relative fluorescence units; RFU) was measured in monoplicate or duplicate on a Tecan reader (excitation: 440 nm; emission: 485 nm). Percentage of K18 disaggregation was then calculated and half maximal effective concentration (EC50) was determined using GraphPad Prism version 5 (GraphPad Software) assuming a one-binding site fitting model.

Experiment [2] concerns human neuroblastoma cell line overexpressing the full-length form of human Tau carrying the P301L mutation. Kind of experiment: Reduction of intracellular Tau aggregation (AlphaLISA). Type of experiment: cell-based. The conditions noted are these: compound at 5 μM, 24 h, aggregated Tau normalized to total Tau, relative to DMSO-treated cells. How it is done:
Reduction of Intracellular Tau Aggregation
A human neuroblastoma cell line overexpressing the full-length form of human Tau carrying the P301L mutation was cultured in complete medium [DMEM-F12 4.5 g/L Glutamax (Invitrogen), 15% FBS (Biochrom), 1% Peni/Strep (Invitrogen) supplemented with 2.5 μg/ml of G418 (Sigma-Aldrich) selection antibiotic]. The day before the experiment 5×10^5 cells/well were plated in a 6 well plate in 3 mL of complete medium. The next day, cells were incubated with DMSO or a compound of the present invention at a 5 μM for additional 24 h at 37° C. After incubation, cells were trypsinized, resuspended in 100 μl of homogenization buffer [25 mM Tris-HCl pH 7.4, 150 mM NaCl, 1 mM EDTA, 1 mM EGTA containing phosphatase inhibitors (30 mM NaF, 0.2 mM Na3VO4, 1 nM Okadaic acid, 1 mM PMSF, 5 mM Na4P2O7) and protease inhibitor cocktail (Complete™, Roche)], and then physically lysed with three rapid cycles of freezing and thawing. Samples were then directly tested in the AlphaLISA assay. Phosphorylated, aggregated, and total Tau were quantified by AlphaLisa using the following antibody pairs: • HT7-Acceptor beads+biotin (BT)-Tau13-Donor beads: Total Tau • HT7-Acceptor beads+biotin (BT)-HT7-Donor beads: Aggregated human Tau
The Tau13 (Abcam) was biotinylated using EZ-Link® NHS-PEO Solid Phase biotinylation kit (Thermo Scientific), while the HT7-biotin was from a commercial source (Thermo Scientific).
For each antibody pairs the concentration of acceptor beads and biotinylated antibodies was optimized. All samples were first tested in a dilution series in PBS in order to identify the linear range and optimal dilution for each sample and assay. For the final protocol, the following reagents were added in a 384-well white OptiPlate (PerkinElmer): • 5 μL of test diluted sample • 20 μL of the mixture biotin-mAb acceptor beads at the following final concentrations: • HT7-BT at 1.25 nM in combination with HT7-Acc beads at 10 μg/ml • Tau13-BT at 5 nM in combination with HT7-Acc beads at 2.5 μg/ml
After incubation of this mixture at room temperature for 1 h, 25 μL of Streptavidin Donor beads (Perkin Elmer) at 25 μg/mL were added in the dark. Plates were analyzed after 30 min incubation using the EnSpire Alpha instrument and EnSpire Workstation version 3.00. Data for aggregated Tau were normalized to total Tau and then expressed as percentage of the DMSO-treated cells.
Background: In Alpha technology, singlet oxygen from a donor bead excites a nearby acceptor bead.

Experiment [3] addresses T2, recombinant full-length (fl)Tau (human Tau 2N4R) aggregates (Homo sapiens, UniProt P10636).
T2 construct: 35 μM of recombinant full-length (fl)Tau in PBS were aggregated; made in house; host or cells: bacteria
Kind of experiment: Full-length Tau (flTau) disaggregation assay by Thioflavin T (ThT). Type of experiment: biochemical. To be noted: 2 μM flTau aggregates, 30 minutes at RT, ThT fluorescence. On the procedure:
Full-Length Tau (flTau) Disaggregation Assay by Thioflavin T (ThT)
as §1, with “The longest isoform of human Tau (2N4R; 441 amino acids) was expressed in bacteria and purified. For the Tau disaggregation assay by ThT, 35 μM of recombinant full-length (fl)Tau in PBS were aggregated for 24 hours at 37° C. in presence of 50 μM of heparin (Sigma-Aldrich) and 10 mM of DTT (Sigma-Aldrich) under shaking at 750 RPM. Compounds were” for “Compounds were”, “10 mM. flTau aggregates and” for “10 mM. K18 aggregates and”, “μM of flTau aggregates and” for “μM of K18 aggregates and”, “Percentage of flTau disaggregation was” for “Percentage of K18 disaggregation was”, “calculated and the half maximal” for “calculated and half maximal”

T2 sequence (P10636 1-441 isoform P10636-8): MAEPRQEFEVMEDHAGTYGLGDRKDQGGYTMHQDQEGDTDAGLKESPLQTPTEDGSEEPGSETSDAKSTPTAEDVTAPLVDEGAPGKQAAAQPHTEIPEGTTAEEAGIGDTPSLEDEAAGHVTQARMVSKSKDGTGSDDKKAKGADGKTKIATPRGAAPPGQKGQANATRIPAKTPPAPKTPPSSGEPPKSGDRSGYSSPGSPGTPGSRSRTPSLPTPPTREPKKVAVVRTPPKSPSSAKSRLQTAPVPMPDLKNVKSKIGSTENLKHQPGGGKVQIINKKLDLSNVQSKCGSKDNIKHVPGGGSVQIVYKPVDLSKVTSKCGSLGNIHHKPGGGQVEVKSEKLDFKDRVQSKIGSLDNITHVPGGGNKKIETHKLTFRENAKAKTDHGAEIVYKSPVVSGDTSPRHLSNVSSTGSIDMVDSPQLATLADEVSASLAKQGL

In experiment [1], `Fc1ccc2[nH]c3c(c2c1)CN(c1ccc2nc(N4CCOCC4)sc2c1)CC3` [Example 6] had a negative logarithm of the EC50 (pEC50) of more than 5.00. Besides, the inhibition at 5 µM in experiment [2] fell in the range of 25 to 50%.
For `COc1ccc2[nH]c3c(c2c1)CN(c1ccc2nc(N4CCOCC4)sc2c1)CC3` [Example 19], the pEC50 in experiment [3] was more than 5.00. Further, in experiment [2], the inhibition at 5 µM lay within 25 to 50%.
Consider `Fc1ccc2c3c([nH]c2c1)CCN(c1ccc2oc(N4CCOCC4)nc2c1)C3` [Example 45, 5-(7-fluoro-1,3,4,5-tetrahydropyrido[4,3-b]indol-2-yl)-2-morpholino-1,3-benzoxazole], for which the negative-log EC50 (pEC50) in experiment [3] and in experiment [1] was more than 5.00 each time. The inhibition at 5 µM in experiment [2] is more than 50%.
For `Fc1cccc2[nH]c3c(c12)CN(c1ccc2sc(N4CCOCC4)nc2c1)CC3` [Example 52], in experiment [3], the negative-log EC50 (pEC50) was more than 5.00. The inhibition at 5 µM in experiment [2] fell in the range of 10 to 25%.
On the same counts, the results for `CN(C)c1nc2ccc(N3CCc4[nH]c5cc(F)ccc5c4C3)cc2o1` [Example 55] are more than 5.00 and 10 to 25%.
On the same counts, the results for `Cn1c2c(c3ccc(F)cc31)CN(c1ccc3nc(N4CCOCC4)sc3c1)CC2` [Example 64] are more than 5.00 and 10 to 25%.
Take `CN(C)c1nc2cc(N3CCc4[nH]c5cc(F)ccc5c4C3)ccc2s1` [Example 69]: the negative logarithm of the EC50 (pEC50) in experiment [3] was more than 5.00. Further, the inhibition at 5 µM in experiment [2] is more than 50%.
For the compound `Fc1ccc2c3c([nH]c2c1)CCN(c1ccn2nc(N4CCOCC4)nc2c1)C3` [Example 70], the negative logarithm of the EC50 (pEC50) in experiment [1] is more than 5.00. The inhibition at 5 µM in experiment [2] fell in the range of 25 to 50%.
